Measurements taken from patent US20250134874A1, “PHARMACEUTICAL FORMULATIONS COMPRISING 3-({[(4R)-7-{METHYL[4-(PROPAN-2-YL)PHENYL]AMINO}-3,4-DIHYDRO-2H-1-BENZOPYRAN-4-YL]METHYL}AMINO)PYRIDINE-4-CARBOXYLIC ACID” (TACHYON THERAPEUTICS, INC., priority 2021, published 2025).

System: 301 cancer cell lines from different tumor types (OncoPanel; HD Biosciences)
Experiment: 2D cell viability inhibition assay (CellTiter-Glo) in cancer cell line panel
Type: cell-based
Conditions: Homo sapiens
Description: In a larger screening study, compound 1 was evaluated across a broad cancer cell line panel (OncoPanel; HD Biosciences) composed of 301 cancer cell lines from different tumor types.
2D cell viability inhibition assays were performed in multiwell plates seeded with cells from the panel. After seeding, the plates were cultured overnight in a humidified incubator at 37° C. to promote adherence. Assays were initiated in individual wells by adding either DMSO as a vehicle control, growth media as a blank, or serially diluted compound 1 (10 μM to 0.0005 μM with 1:3 serial dilution). Cultures were incubated for 168 hours after which the number of viable cells in each test well was assessed using the CellTiter-Glo® Luminescent Cell Viability Assay. Luminescence readouts were performed using an EnVision® Multilabel Reader and the compound 1 readouts were normalized to the DMSO control readouts, expressed as a percent of the control. Outliers were flagged out by visual inspection. Percent of control was plotted against the corresponding compound 1 concentration and the absolute IC50 value was determined using four-parameter logistic non-linear regression as the concentration where inhibition was 50% of the control. For maximum inhibition <50%, the absolute IC50 was reported as >10. In addition to EC50 and IC50, AUC was determined and was normalized to the area corresponding to theoretical no-inhibition (the rectangular area defined by the compound dose range and 0 to 100 in y). Emax was recorded as the minimum in y with the compound dose range. For those cell lines where Emax>40, EC50 was manually set to 10 μM. A hierarchical clustering algorithm based on Euclidean distance between the standardized input values and “Ward.D” method as implemented in R hclust function was used to visualize the compound 1 cellular potency data. The sensitive/moderate/resistant calls for each cell line was determined by visually inspecting the resulting clustering dendrogram. All the analyses were done in R Core Team.

## CC(C)c1ccc(N(C)c2ccc3c(c2)OCC[C@H]3CNc2cnccc2C(=O)O)cc1 [Compound 1, 3-({[(4R)-7-{methyl[4-(propan-2-yl)phenyl]amino}-3,4-dihydro-2H-1-benzopyran-4-yl]methyl}amino)pyridine-4-carboxylic acid]
NCI-H1944, NCIH1944 cell line
  EC50: ≥ 10000 nM
  IC50: 16.3 nM
NCI-H1975, NCIH1975 cell line
  EC50: 25.5 nM
  IC50: 34.8 nM
NCI-H2009, 168 h, NCIH2009, lung, adenocarcinoma, 168 hours
  IC50: > 10000 nM
NCI-H2081, NCIH2081 cell line
  EC50: 1.46 nM
  IC50: 2.57 nM
NCI-H2087, NCIH2087 cell line
  EC50: 2.58 nM
  IC50: 3.56 nM
NCI-H2122, NCIH2122 cell line
  EC50: 16.7 nM
  IC50: 23.9 nM
NCI-H2171, NCIH2171 cell line
  EC50: ≥ 10000 nM
  IC50: > 10000 nM
NCI-H2228, NCIH2228 cell line
  IC50: 179 nM
NCI-H2286, NCIH2286 cell line
  EC50: 2.53 nM
  IC50: 3.51 nM
NCI-H2291, NCIH2291 cell line
  EC50: 7.55 nM
  IC50: 8.4 nM
NCI-H2347, NCIH2347 cell line
  IC50: 13.1 nM
NCI-N87, NCIN87 cell line
  EC50: 3.94 nM
  IC50: 4.29 nM
NOMO-1, NOMO1 cell line
  EC50: 3.92 nM
  IC50: 5.01 nM
NUGC-3, NUGC3 cell line
  EC50: 5.63 nM
  IC50: 7.72 nM
NUGC-4, NUGC4 cell line
  EC50: 6.62 nM
  IC50: 10.6 nM
ONS-76, 168 h, ONS76, central nervous system, NS, 168 hours
  IC50: > 10000 nM
OS-RC-2, OSRC2 cell line
  IC50: > 10000 nM
OVCAR-3, 168 h, NIHOVCAR3, ovary, NS, 168 hours
  IC50: > 10000 nM
P31-FUJ, P31FUJ cell line
  EC50: 2.43 nM
  IC50: 4.32 nM
PANC-1, PANC1 cell line
  EC50: 51.5 nM
  IC50: 68.6 nM
PC-3, PC3 cell line
  EC50: 11.8 nM
  IC50: 14.5 nM
PF-382, PF382 cell line
  EC50: 1.89 nM
  IC50: 3.69 nM
PLC-PRF-5, PLCPRF5 cell line
  EC50: 16.4 nM
  IC50: 28 nM
RCM-1, RCM1 cell line
  IC50: > 10000 nM
RD, RD cell line
  EC50: 4.79 nM
  IC50: 9.29 nM
REH, REH cell line
  EC50: 1.32 nM
  IC50: 1.21 nM
RKO, RKO cell line
  EC50: 8.5 nM
  IC50: 11.5 nM
RL, RL cell line
  EC50: 1.88 nM
  IC50: 2.99 nM
RPMI-7951, 168 h, RPMI7951, skin, NS, 168 hours
  IC50: > 10000 nM
RPMI-8226, RPMI8226 cell line
  EC50: 10.4 nM
  IC50: 12.5 nM
RT112/84, RT11284 cell line
  EC50: 4.14 nM
  IC50: 4.43 nM
SAOS-2, 168 h, SAOS2, bone, NS, 168 hours
  IC50: > 10000 nM
SCC-4, SCC4 cell line
  EC50: 5.57 nM
  IC50: 10.5 nM
SCC-9, 168 h, SCC9, upper aerodigestive tract, squamous cell carcinoma, 168 hours
  IC50: > 10000 nM
SCC-15, 168 h, SCC15, upper aerodigestive tract, squamous cell carcinoma, 168 hours
  IC50: > 10000 nM
SCC-25, 168 h, SCC25, upper aerodigestive tract, squamous cell carcinoma, 168 hours
  IC50: > 10000 nM
SCaBER, SCABER cell line
  EC50: 8.93 nM
  IC50: 15.2 nM
SH-SY5Y, SHSY5Y cell line
  EC50: 4.32 nM
  IC50: 13.5 nM
SK-BR-3, SKBR3 cell line
  EC50: 4.32 nM
  IC50: 7.14 nM
SK-CO-1, SKCO1 cell line
  EC50: ≥ 10000 nM
  IC50: 30.6 nM
SK-HEP1, 168 h, SKHEP1, liver, adenocarcinoma, 168 hours
  IC50: > 10000 nM
SK-LU-1, SKLU1 cell line
  EC50: 8.49 nM
  IC50: 40 nM
SK-MEL3, SKMEL3 cell line
  IC50: 472 nM
SK-MEL-1, SKMEL1 cell line
  EC50: 0.536 nM
  IC50: 9.24 nM
SK-MEL-2, SKMEL2 cell line
  EC50: 27 nM
  IC50: 140 nM
SK-MEL-5, SKMEL5 cell line
  EC50: 14.8 nM
  IC50: 16.8 nM
SK-MEL-24, 168 h, SKMEL24, skin, NS, 168 hours
  IC50: > 10000 nM
SK-MEL-28, SKMEL28 cell line
  EC50: 5.63 nM
  IC50: 5.56 nM
SK-MES-1, SKMES1 cell line
  EC50: 24.3 nM
  IC50: 47.5 nM
SK-N-SH, 168 h, SKNSH, autonomic ganglia, NS
  IC50: > 10000 nM
SK-OV-3, 168 h, SKOV3, ovary, adenocarcinoma, 168 hours
  IC50: > 10000 nM
SNB-19, SNB19 cell line
  EC50: 7.01 nM
  IC50: 11.6 nM
SNU-5, SNU5 cell line
  EC50: 82.4 nM
  IC50: 146 nM
SNU-16, SNU16 cell line
  EC50: 3.69 nM
  IC50: 4.22 nM
SNU-398, SNU398 cell line
  EC50: 9.63 nM
  IC50: 18 nM
SNU-C1, 168 h, SNUC1, large intestine, adenocarcinoma, 168 hours
  IC50: > 10000 nM
SUP-T1, SUPT1 cell line
  IC50: 3330 nM
SW48, SW48 cell line
  EC50: ≥ 10000 nM
  IC50: 50 nM
SW480, SW480 cell line
  EC50: 7.73 nM
  IC50: 9.79 nM
SW780, SW780 cell line
  EC50: 11.8 nM
  IC50: 13 nM
SW837, 168 h, SW837, large intestine, adenocarcinoma, 168 hours
  IC50: > 10000 nM
SW1417, 168 h, SW1417, large intestine, adenocarcinoma, 168 hours
  IC50: > 10000 nM
SW1463, SW1463 cell line
  EC50: 9.18 nM
  IC50: 9.24 nM
SW1710, SW1710 cell line
  EC50: 27.3 nM
  IC50: 63.3 nM
SW1990, SW1990 cell line
  IC50: > 10000 nM
SW-620, SW620 cell line
  EC50: 26.3 nM
  IC50: 29.3 nM
T84, T84 cell line
  EC50: 10.1 nM
  IC50: 21 nM
TALL-1, TALL1 cell line
  EC50: 0.895 nM
